In patent US9233933B2, “4,4-disubstituted-1,4-dihydropyrimidines and the use thereof as medicaments for the treatment of hepatitis B” (priority 2012, dated 2016):
pEC50: −log10 of the molar value. Where two headings read alike, the source gives them in different places.

Key:
HBV [1] = assay: anti-HBV activity in stable transfected HepG2.2.15 cell line, HBV DNA from secreted virions by realtime PCR; type: cell-based, Hepatitis B virus; settings: HepG2.2.15 cells, 6 days of treatment, secreted virion HBV DNA, read-out: HBV-HepG2 2.15 EC50
HepG2 cells [2] = assay: Cytotoxicity in HepG2 cells using CellTiter-Blue, same incubation period as HepG2.2.15 assay; type: cell-based; settings: 6 days
Procedure: (§1) Cytotoxicity of the compounds was tested in HepG2 cells using CellTiter-Blue, with the same incubation period and dose range as in the HepG2.2.15 assay.

HBV [3] = assay: anti HBV activity in HepG2.117 cell line (Tet-off, inducibly HBV producing), intracellular HBV DNA by realtime PCR; type: cell-based, Hepatitis B virus; settings: HepG2.117 cells, 3 days of treatment, intracellular HBV DNA, read-out: HepG2 117 EC50
HepG2 cells [4] = assay: Cytotoxicity in HepG2 cells incubated 4 days, Resazurin assay; settings: read-out: HepG2 4 days CC50
HepG2 cells [5] = settings: human, 4 days
[6] = Cytotoxicity in HepG2 cells using CellTiter-Blue, same incubation period as HepG2.2.15 assay; type: cell-based; settings: human, HepG2 6 days CC50
Procedure: as §1

in vitro = settings: human, HepG2 4 days CC50
[7] = HepG2 cells, CellTiter-Blue, read-out: HepG2 6 days CC50
[8] = Hepatitis B virus, HepG2.2.15, 144 h
[9] = Hepatitis B virus, HepG2.117, 72 h

SMILES | pEC50 (HBV [1]) | pEC50 (HBV [3]) | CC50 (HepG2 cells [4]) | pEC50 (HBV [1]; [8]) | pEC50 (HBV [3]; [9]) | CC50 at 6 days [6] | CC50 at 4 days (in vitro) | other results
CCOC(=O)C1=C(CN2CCOCC2)NC(c2ccccn2)=NC1(C)c1ccc(F)cc1 (racemic) [Compound 4a] | < 4.00 | – | – | – | – | – | – | CC50 (HepG2 cells [2]; [7]): 92 µM
CCOC(=O)C1=C(CN2CCOCC2)NC(c2ccccn2)=NC1(C)c1ccc(F)cc1 (racemic) [Compound 4b] | 6.19 | 6.12 | > 50 µM | – | – | – | – | CC50 (HepG2 cells [2]; [7]): 92.4 µM
CCOC(=O)C1=C(CN2CCOCC2)NC(c2ccccn2)=NC1(c1ccc(F)cc1)C(F)(F)F (racemic) [Compound 34] | 4.79 | – | – | – | – | – | – | CC50 (HepG2 cells [2]; [7]): 20 µM
CCOC(=O)C1=C(CN2CCOCC2)NC(c2ccccn2)=NC1(c1ccc(F)cc1)C(F)(F)F (racemic) [Compound 34a] | < 4.00 | – | – | – | – | – | – | CC50 (HepG2 cells [2]; [7]): 30.9 µM
CCOC(=O)C1=C(CN2CCOCC2)NC(c2ccccn2)=NC1(c1ccc(F)cc1)C(F)(F)F (racemic) [Compound 34b] | 5.08 | – | – | – | – | – | – | CC50 (HepG2 cells [2]; [7]): 41.6 µM
N#CC1=C(CN2CCOCC2)NC(c2ccccn2)=NC12CCCc1cc(F)ccc12 (single isomer, unassigned) [Compound 60b] | 5.65 | 5.89 | > 100 µM | – | – | – | – | CC50 (HepG2 cells [2]; [7]): > 100 µM
COC(=O)C1=C(CN2CCOCC2)NC(c2ccccn2)=NC12CCc1c(F)cccc12 (single isomer, unassigned) [Compound 66b] | 4.45 | 4.31 | – | – | – | – | – | CC50 (HepG2 cells [2]; human): > 100 µM; CC50 (HepG2 cells [5]): > 100 µM
COC(=O)C1=C(CN2CCOCC2)NC(c2ccccn2)=NC12CCc1ccc(F)cc12 (single isomer, unassigned) [Compound 96b] | 4.52 | 4.73 | – | – | – | – | – | CC50 (HepG2 cells [2]; human): > 100 µM; CC50 (HepG2 cells [5]): > 100 µM
COC(=O)C1=C(C)NC(c2ncc(F)cc2F)=NC12c1ccccc1OC2(F)F (single isomer, unassigned) [Compound 106b] | 4.53 | < 4.60 | – | – | – | – | – | CC50 (HepG2 cells [2]; human): > 100 µM; CC50 (HepG2 cells [5]): > 25 µM
COC(=O)C1=C(C)NC(c2ncc(F)cc2F)=NC12CC(C)(C)c1ccccc12 (single isomer, unassigned) [Compound 134b] | 4.38 | < 4.30 | – | – | – | – | – | CC50 (HepG2 cells [2]; human): 35.8 µM; CC50 (HepG2 cells [5]): > 50 µM
COC(=O)C1=C(C)NC(c2ncc(F)cc2F)=NC1(c1ccc(F)c(F)c1)C(F)F (single isomer, unassigned) [Compound 151b] | 5.37 | 5.43 | > 25 µM | – | – | – | – | –
COC(=O)C1=C(C)NC(c2ncccc2F)=NC1(C)c1ccc(F)c(F)c1 (single isomer, unassigned) [Compound 158b] | – | < 4.60 | > 25 µM | < 4.00 | – | – | – | –
COC(=O)C1=C(C)NC(c2ncccn2)=NC1(C)c1ccc(F)c(F)c1 (single isomer, unassigned) [Compound 159b] | < 4.00 | < 4.60 | > 25 µM | – | – | – | – | –
COC(=O)C1=C(C)NC(SC)=NC1(C)c1ccc(F)c(F)c1 (single isomer, unassigned) [Compound 160b] | 6.35 | 4.98 | > 25 µM | – | – | – | – | –
COC(=O)C1=C(C#N)NC(c2ncc(F)cc2F)=NC1(C)c1ccc(F)c(F)c1 (single isomer, unassigned) [Compound 163b] | < 4.00 | < 4.60 | > 25 µM | – | – | – | – | –
COC(=O)C1=C(C)NC(c2nccs2)=NC12C(F)=C(F)c1cc(F)ccc12 (single isomer, unassigned) [Compound 166b] | 6.71 | 4.81 | – | – | – | – | – | CC50 (HepG2 cells [5]): > 25 µM
COC(=O)C1=C(CN2CCOCC2)NC(c2ccccn2)=NC12c1ccc(F)cc1C(F)C2(F)F (single isomer, unassigned) [Compound 168B] | 5.24 | 5.83 | – | – | – | – | – | CC50 (HepG2 cells [5]): > 25 µM
COC(=O)C1=C(C)NC(c2nccs2)=NC12C(F)=Cc1c2ccc(F)c1F (single isomer, unassigned) [Compound 174b] | – | < 4.60 | – | – | – | – | – | CC50 (HepG2 cells [5]): > 25 µM
COC(=O)C1=C(C)NC(c2ncc(F)cc2F)=NC1(C)c1ccc(F)c(F)c1 (stereo not shown) [132b •MsOH] | – | – | > 25 µM | 6.16 | 6.10 | – | – | –
COC(=O)C1=C(C)NC(c2ncc(F)cc2F)=NC1(C)c1ccc(Cl)c(F)c1 (stereo not shown) [156 •MsOH] | 5.71 | 5.96 | > 25 µM | – | – | – | – | –
COC(=O)C1=C(C)NC(c2ncc(F)cc2F)=NC12CCc1c2ccc(F)c1F (stereo not shown) [Compound 100] | – | – | – | 6.26 | 6.30 | > 100 µM | > 100 µM | –
COC(=O)C1=C(CN2CCOCC2)NC(c2ncc(F)cc2F)=NC12CCc1c2ccc(F)c1F (stereo not shown) [Compound 101] | – | – | – | > 7.01 | 7.14 | > 25 µM | > 50 µM | –
COC(=O)C1=C(C)NC(c2ncc(F)cc2F)=NC12c1ccccc1OC2(F)F (stereo not shown) [Compound 106] | – | – | – | 4.01 | < 4.60 | > 100 µM | > 25 µM | –
COC(=O)C1=C(CN2CCOCC2)NC(c2ccccn2)=NC12c1ccccc1CC2(F)F (stereo not shown) [Compound 110] | – | – | – | 4.97 | 5.21 | > 100 µM | > 50 µM | –
COC(=O)C1=C(C)NC(c2ccccn2)=NC12c1ccccc1CC2(F)F (stereo not shown) [Compound 111] | – | – | – | 4.09 | < 4.30 | > 100 µM | > 50 µM | –
COC(=O)C1=C(CN2CCOCC2)NC(c2ccccn2)=NC12C(F)=Cc1ccccc12 (stereo not shown) [Compound 112] | – | – | – | 6.20 | 6.39 | > 100 µM | > 50 µM | –
COC(=O)C1=C(C)NC(c2ncc(F)cc2F)=NC12c1ccccc1CC2(F)F (stereo not shown) [Compound 115] | – | – | – | < 4.00 | < 4.60 | > 100 µM | > 25 µM | –
COC(=O)C1=C(C)NC(c2ncc(F)cc2F)=NC12C(=O)N(C)c1cc(F)ccc12 (stereo not shown) [Compound 118] | – | – | – | 4.39 | < 4.30 | > 100 µM | > 50 µM | –
COC(=O)C1=C(CN2CCOCC2)NC(c2ccccn2)=NC12c1ccccc1OC2(F)F (stereo not shown) [Compound 124] | – | – | – | 4.89 | 5.62 | 48.4 µM | > 25 µM | –
